Test: Determination of the log P values by HPLC (formic acid method)
Format: physicochemical
Conditions: reversed-phase HPLC column (C 18), reversed-phase column (C 18), acidic range (pH 3.4), 55° C.
Experimental: 1) Description of Method for Determination of the Log P Values (Formic Acid Method)
Eluents for determination in the acidic range (pH 3.4):
Eluent A: acetonitrile+1 ml of formic acid/liter. Eluent B: water+0.9 ml of formic acid/liter.
The lambda max values were determined in the maxima of the chromatographic signals using the UV spectra from 200 nm to 400 nm.

| Compound | chromatographic logP |
| --- | --- |
| Nc1nn(-c2ccccc2Cl)c2ccccc12 [1-(2-Chlorophenyl)-1H-indazole-3-amine] | 2.32 |
| Cc1cccc(C)c1-n1ccc(N)n1 [1-(2,6-Dimethylphenyl)-1H-pyrazole-3-amine] | 0.62 |

Continued, values first:

| chromatographic logP | Compound |
| --- | --- |
| 3.76 | CCN(CC)c1ccc(C#N)c(-n2ccc(NC(=O)c3ccccc3C(F)(F)F)n2)n1 [Compound I-1-568, N-{1-[3-Cyano-6-(diethylamino)pyridin-2-yl]-1H-pyrazol-3-yl}-2-(trifluoromethyl)benzamide] |
| 2.86 | O=C(Nc1ccn(-c2c(F)cc([N+](=O)[O-])cc2F)n1)c1ccccc1C(F)(F)F [Compound I-1-229, N-[1-(2,6-Difluoro-4-nitrophenyl)-1H-pyrazol-3-yl]-2-(trifluoromethyl)benzamide] |
| 2.66 | N#Cc1cc(F)c(-n2ccc(NC(=O)c3ccccc3C(F)(F)F)n2)c(F)c1 [Compound I-1-228, N-[1-(4-Cyano-2,6-difluorophenyl)-1H-pyrazol-3-yl]-2-(trifluoromethyl)benzamide] |
| 2.67 | N#Cc1c(Cl)ccnc1-n1ccc(NC(=O)c2ccccc2C(F)(F)F)n1 [Compound I-1-586, N-[1-(4-Chloro-3-cyanopyridin-2-yl)-1H-pyrazol-3-yl]-2-(trifluoromethyl)benzamide] |

Same assay, conditions: reversed-phase column (C 18), acidic range (pH 3.4), 55° C.

| Compound | log P |
| --- | --- |
| CC(C)Cn1ncc(I)c1C(=O)Nc1ccn(-c2ncc(F)cc2F)n1 [Compound I-1-539] | 3.28 |
| Cc1nnsc1C(=O)Nc1ccn(-c2ncc(F)cc2F)n1 [Compound I-1-160] | 1.91 |
| CCc1nnccc1C(=O)Nc1ccn(-c2ncc(F)cc2F)n1 [Compound I-1-505] | 1.50 |
| O=C(Nc1cnn(-c2ncc(F)cc2F)n1)c1ccsc1I [Compound I-2-72] | 2.44 |
| O=C(Nc1ccn(-c2ncc(F)cc2F)n1)c1cccnc1OC(F)(F)F [Compound I-1-464] | 2.53 |
| O=C(Nc1ccn(-c2ncc(F)cc2F)n1)c1ccnn1C(F)F [Compound I-1-443] | 2.16 |
| C=CCN(C(=O)c1ccccc1C(F)(F)F)c1ccn(-c2ncc(F)cc2F)n1 [Compound I-1-469] | 3.38 |
| O=C(Nc1ccn(-c2cc(F)ccc2F)n1)c1ccsc1I [Compound I-1-219] | 3.25 |
| Cc1nc(C)c(C(=O)Nc2ccn(-c3ncc(F)cc3F)n2)s1 [Compound I-1-478] | 1.88 |
| O=C(Nc1cnn(-c2c(F)cccc2F)n1)c1nccnc1C(F)(F)F [Compound I-2-79] | 2.60 |
| CC(=O)c1ccccc1C(=O)Nc1ccn(-c2ncc(F)cc2F)n1 [Compound I-1-481] | 2.22 |
| Cn1nc(C(C)(C)C)c([N+](=O)[O-])c1C(=O)Nc1ccn(-c2ncc(F)cc2F)n1 [Compound I-1-512] | 3.11 |
| CCCn1ncc(I)c1C(=O)Nc1ccn(-c2c(F)cccc2F)n1 [Compound I-1-325] | 3.11 |
| O=C(Nc1ccn(-c2ncc(F)cc2F)n1)c1c(F)cccc1Cl [Compound I-1-484] | 2.38 |
| O=C(c1ccccc1C(F)(F)F)N(C(=O)c1ccccc1C(F)(F)F)c1cnn(-c2ncccc2Cl)n1 [Compound I-2-52] | 3.74 |
| CCCn1cc(Cl)c(C(=O)Nc2ccn(-c3ncc(F)cc3F)n2)n1 [Compound I-1-533] | 2.85 |

| Compound | log P |
| --- | --- |
| Cn1ncc(Cl)c1C(=O)Nc1ccn(-c2c(F)cccc2F)n1 [Compound I-1-311] | 2.46 |
| O=C(Nc1ccn(-c2c(F)cccc2F)c1)c1c(F)cccc1F [Compound I-3-2] | 2.68 |
| O=C(Nc1ccn(-c2c(F)cccc2F)n1)c1occc1I [Compound I-1-288] | 2.64 |
| Cn1cnc(C(=O)Nc2ccn(-c3c(F)cccc3F)n2)c1[N+](=O)[O-] [Compound I-1-242] | 1.81 |
| N#Cc1cc(F)ccc1-n1ccc(NC(=O)c2c(F)cccc2F)n1 [Compound I-1-628] | 2.39 |
| O=C(Nc1nn(-c2ncc(F)cc2F)c2ccccc12)c1ccccc1Br [Compound I-5-3] | 3.09 |
| O=C(Nc1ccn(-c2ncc(F)cc2F)n1)c1sccc1I [Compound I-1-507] | 2.69 |
| Cc1cccc(C)c1C(=O)Nc1ccn(-c2ncc(F)cc2F)n1 [Compound I-1-480] | 2.51 |
| Cc1cc(NC(=O)c2ccccc2S(C)(=O)=O)nn1-c1ccccc1Cl [Compound I-1-342] | 1.82 |
| Cn1nc(C(F)(F)C(F)(F)F)c(C#N)c1C(=O)Nc1ccn(-c2ncc(F)cc2F)n1 [Compound I-1-535] | 3.19 |
| O=C(Nc1cnn(-c2ncccc2Cl)n1)c1cccnc1C(F)(F)F [Compound I-2-55] | 1.95 |
| CCn1nc(C)c(Br)c1C(=O)Nc1ccn(-c2ncc(F)cc2F)n1 [Compound I-1-519] | 2.93 |
| Cn1ncnc1C(=O)Nc1ccn(-c2ncc(F)cc2F)n1 [Compound I-1-449] | 1.67 |
| CSc1ncccc1C(=O)Nc1ccn(-c2ncc(F)cc2F)n1 [Compound I-1-461] | 2.14 |
| O=C(Nc1ccn(-c2c(F)cccc2F)n1)c1snc(Cl)c1Cl [Compound I-1-115] | 3.33 |

Next, values leading:

| log P | Compound |
| --- | --- |
| 2.71 | Cc1occc1C(=O)Nc1ccn(-c2ccccc2Cl)n1 [Compound I-1-370] |
| 2.48 | O=C(Nc1ccn(-c2ccccc2Cl)n1)c1cccnc1C(F)(F)F [Compound I-1-42] |
| 2.37 | O=C(Nc1ccn(-c2ccccc2Br)n1)c1cccnc1Cl [Compound I-1-57] |
| 2.85 | CCc1cccc(F)c1C(=O)Nc1ccn(-c2c(F)cccc2F)n1 [Compound I-1-274] |
| 2.57 | N#Cc1c(F)cccc1-n1ccc(NC(=O)c2ccccc2Cl)n1 [Compound I-1-621] |
| 2.00 | O=C(Nc1ccn(-c2ncc(F)cc2F)n1)c1cnccc1C(F)(F)F [Compound I-1-515] |
| 3.14 | O=C(Nc1ccn(-c2c(F)cccc2F)n1)c1c(C(F)(F)F)cc(F)c(F)c1F [Compound I-1-296] |
| 2.05 | O=C(Nc1ccn(-c2ncc(F)cn2)n1)c1ccccc1I [Compound I-1-605] |
| 2.88 | O=C(Nc1nn(-c2ccccc2Cl)cc1Cl)c1ccccc1Cl [Compound I-1-28] |
| 2.40 | O=C(Nc1ccn(-c2c(F)cccc2F)n1)c1ncccc1Cl [Compound I-1-92] |
| 3.30 | O=C(Nc1ccn(-c2cccc(Cl)c2F)n1)c1ccccc1Cl [Compound I-1-559] |
| 2.65 | O=C(Nc1ccn(-c2ncc(F)cc2F)n1)c1cc(F)ccc1C(F)(F)F [Compound I-1-506] |
| 2.80 | O=C(Nc1ccn(-c2ncc(F)cc2F)n1)c1ccccc1CC(F)(F)F [Compound I-1-635] |
| 1.80 | O=C(Nc1ccn(-c2c(F)cccc2F)n1)c1ccc[n+]([O-])c1C(F)(F)F [Compound I-1-243] |
| 2.09 | O=C(Nc1ccn(-c2nccnc2F)n1)c1ccccc1Br [Compound I-1-175] |
| 3.05 | O=C(Nc1ccn(-c2c(Cl)cccc2Cl)n1)c1ccccc1C(F)(F)F [Compound I-1-120] |
| 2.34 | O=C(NC1=NN(c2c(F)cccc2F)CC1)c1ccccc1C(F)(F)F [Compound I-4-7] |
| 2.32 | O=C(Nc1ccn(-c2ccc(F)cn2)n1)c1cccnc1C(F)(F)F [Compound I-1-597] |
| 3.41 | O=C(Nc1ccn(-c2cccc(Cl)c2Cl)n1)c1ccccc1Br [Compound I-1-187] |
| 2.52 | N#Cc1cc(F)ccc1-n1ccc(NC(=O)c2ccccc2Cl)n1 [Compound I-1-630] |
| 2.13 | O=C(Nc1ccn(-c2cccnc2Cl)n1)c1ccccc1Cl [Compound I-1-392] |

| log P | Compound |
| --- | --- |
| 2.74 | O=C(Nc1ccn(-c2c(F)cccc2F)n1)c1c(F)cccc1I [Compound I-1-277] |
| 2.61 | N#Cc1c(F)cccc1-n1ccc(NC(=O)c2ccccc2Br)n1 [Compound I-1-620] |
| 4.04 | O=C(Nc1ccn(-c2cc(F)c(F)cc2F)n1)c1ccccc1C(F)(F)F [Compound I-1-191] |
| 2.48 | O=C(Nc1ccn(-c2ncc(F)cc2F)n1)c1ccccc1O [Compound I-1-148] |
| 3.15 | CCOc1cccc(Cl)c1-n1ccc(NC(=O)c2ccccc2C(F)(F)F)n1 [Compound I-1-340] |
| 3.01 | O=C(Nc1nn(-c2ccccc2Cl)cc1I)c1ccccc1Cl [Compound I-1-30] |
| 2.72 | O=C(Nc1ccn(-c2c(F)cccc2F)n1)c1c(F)cccc1C(F)(F)F [Compound I-1-276] |
| 3.98 | O=C(Nc1nn(-c2ncc(C(F)(F)F)cc2Cl)c2ccccc12)c1ccccc1Br [Compound I-5-5] |
| 3.11 | O=C(Nc1ccn(-c2c(F)cccc2F)n1)c1cc(Cl)ccc1C(F)(F)F [Compound I-1-329] |
| 2.74 | CCOc1c(F)cccc1-n1ccc(NC(=O)c2ccccc2Cl)n1 [Compound I-1-397] |
| 2.77 | O=C(Nc1nn(-c2c(F)cccc2F)cc1Br)c1ccccc1C(F)(F)F [Compound I-1-252] |
| 2.00 | O=C(Nc1ccn(-c2c(F)cccc2F)n1)c1cccnc1F [Compound I-1-279] |
| 2.76 | O=C(Nc1ccn(-c2c(F)cccc2F)n1)c1ccsc1I [Compound I-1-105] |
| 2.88 | O=C(Nc1ccn(-c2c(Cl)cccc2Cl)n1)c1ccccc1Br [Compound I-1-122] |
| 2.45 | Cc1cc(NC(=O)c2ccccc2Br)nn1-c1ccccc1Cl [Compound I-1-356] |
| 2.72 | O=C(Nc1ccn(-c2ncccc2C(F)(F)F)n1)c1ccccc1I [Compound I-1-427] |
| 2.57 | COc1ccccc1-n1ccc(NC(=O)c2c(F)cccc2F)n1 [Compound I-1-408] |
| 2.82 | O=C(Nc1ccn(-c2cnc(Cl)cn2)n1)c1ccccc1Cl [Compound I-1-389] |
| 2.16 | O=C(Nc1ccn(-c2c(F)cccc2F)n1)c1cnccc1C(F)(F)F [Compound I-1-94] |
| 2.87 | CCOc1cccc(F)c1-n1ccc(NC(=O)c2ccccc2Br)n1 [Compound I-1-399] |

— US9802899B2, “Heterocyclic compounds as pesticides” (BAYER CROPSCIENCE AG, priority 2012, dated 2017)
